According to the NIST ThermoML archive (doi:10.1021/je700662a):
Values joined by “and” are separate entries in the source; they are usually repeats but may differ in a detail not shown here. Equal entries are not always repeated.

Experiments:
[1] = DTA
[2] = molar heat capacity at constant pressure; conditions: 101.33 kPa, Large sample (1 g) DSC
[3] = Molar enthalpy of transition or fusion; conditions: DSC

CCCCCCCCCCCCCCCC(N)=O [hexadecanamide]
Conditions | Molar enthalpy of transition or fusion, [3] | Normal melting temperature, [1] | Triple point temperature, [1]
Crystal 1 | 10.9 kcal/mol and 10.8 kcal/mol | 103 °C and 102.5 °C | –
Crystal 2 | 2.49 kcal/mol and 2.46 kcal/mol | – | 355.5 K and 356.1 K

[2], Crystal 2
Conditions | molar heat capacity at constant pressure [J/K/mol]
208 K | 267.5
213 K | 273.7
218 K | 276.5
223 K | 282.8
228 K | 289
233 K | 297.1
238 K | 302.6
243 K | 310.3
248 K | 319.5
253 K | 323.8
258 K | 331.6
263 K | 340.1
268 K | 348.1
273 K | 357.9
278 K | 364.8
283 K | 371.6
288 K | 378.1
293 K | 387.6
298 K | 394.3
303 K | 401.8

CC(C)(C)C(N)=O [2,2-dimethylpropanamide]
Crystal
Conditions | Molar enthalpy of transition or fusion | Normal melting temperature
[1] | – | 152.2 °C and 152.5 °C
[3] | 5.76 kcal/mol and 6.12 kcal/mol | –

[2], Crystal
Conditions | molar heat capacity at constant pressure [J/K/mol]
188 K | 115.7
193 K | 117.6
198 K | 120.8
203 K | 123
208 K | 124.8
213 K | 126.4
218 K | 129.1
223 K | 131.5
228 K | 133.4
233 K | 136.6
238 K | 137.9
243 K | 140.2
248 K | 142.8
253 K | 144.5
258 K | 147.5
263 K | 149.2
268 K | 150.9
273 K | 153.8
278 K | 156.3
283 K | 158.3
288 K | 161.1
293 K | 163
298 K | 163.7
303 K | 165.4
308 K | 167.9
313 K | 170.2
318 K | 172.7
323 K | 174.2

CCCC(N)=O [butanamide]
Conditions | Molar enthalpy of transition or fusion, [3] [kcal/mol] | Normal melting temperature, [1] [°C]
Crystal | 4.59 | 114.2
Crystal 1 | 4.68 | 114.2

[2], Crystal
Conditions | molar heat capacity at constant pressure [J/K/mol]
183 K | 96.4
188 K | 98.3
193 K | 101.7
198 K | 104.1
203 K | 106.4
208 K | 108
213 K | 109.7
218 K | 112.5
223 K | 114.3
228 K | 116
233 K | 118.1
238 K | 120.8
243 K | 123
248 K | 125.9
253 K | 127.4
258 K | 130.2
263 K | 132.4
268 K | 135
273 K | 136.8
278 K | 139.3
283 K | 141.5
288 K | 143.7
293 K | 146.4
298 K | 147.7
303 K | 150.3
308 K | 153.5
313 K | 155
318 K | 158.8
323 K | 161.4

CCCCCCCCCCCCCCCCCCCCCC(N)=O [docosanamide]
Crystal
Conditions | Molar enthalpy of transition or fusion | Normal melting temperature
[1] | – | 110.2 °C and 111.8 °C
[3] | 15.1 kcal/mol and 15.5 kcal/mol | –

[2], Crystal
Conditions | molar heat capacity at constant pressure [J/K/mol]
228 K | 420.4
233 K | 431.8
238 K | 439.8
243 K | 449.2
248 K | 461.3
253 K | 470.1
258 K | 480.5
263 K | 493
268 K | 500.2
273 K | 511.9
278 K | 523.7
283 K | 539.7
288 K | 548.1
293 K | 561.1
298 K | 568.7

CCCCCCCCCCCCCCCCCC(N)=O [octadecanamide]
Conditions | Molar enthalpy of transition or fusion, [3] | Normal melting temperature, [1] | Triple point temperature, [1] [K]
Crystal 1 | 13.1 kcal/mol and 13.2 kcal/mol | 106.6 °C and 107 °C | –
Crystal 2 | 0.526 kcal/mol | – | 298.7

[2], Crystal 2
Conditions | molar heat capacity at constant pressure [J/K/mol]
208 K | 318.2
213 K | 328.5
218 K | 336.6
223 K | 345.2
228 K | 353.1
233 K | 360.8
238 K | 367.6
243 K | 375.8
248 K | 385.6
253 K | 393.6
258 K | 403.2

CCC(N)=O [propanamide]
Crystal
Conditions | Molar enthalpy of transition or fusion [kcal/mol] | Normal melting temperature [°C]
[1] | – | 79.5
[3] | 3.08 | –

CCCCCCCCCCCC(N)=O [dodecanamide]
Conditions | Molar enthalpy of transition or fusion, [3] | Normal melting temperature, [1] | Triple point temperature, [1]
Crystal 1 | 8.68 kcal/mol and 8.53 kcal/mol | 100.2 °C and 100.7 °C | –
Crystal 2 | 2.32 kcal/mol and 2.15 kcal/mol | – | 321.1 K and 322 K

[2], Crystal 2
Conditions | molar heat capacity at constant pressure [J/K/mol]
198 K | 213.3
203 K | 217.8
208 K | 223.3
213 K | 227.1
218 K | 231.8
223 K | 237.5
228 K | 242.2
233 K | 245.9
238 K | 251.2
243 K | 258.4
248 K | 263
253 K | 269.2
258 K | 274.3
263 K | 280.8

CC(C)C(N)=O [2-methylpropanamide]
Crystal
Conditions | Molar enthalpy of transition or fusion | Normal melting temperature
[1] | – | 127.0 °C and 127.2 °C
[3] | 4.59 kcal/mol and 4.61 kcal/mol | –

[2], Crystal
Conditions | molar heat capacity at constant pressure [J/K/mol]
183 K | 100.8
188 K | 102.9
193 K | 105
198 K | 107.1
203 K | 110.5
208 K | 112.4
213 K | 114
218 K | 115.6
223 K | 118.7
228 K | 120.3
233 K | 122.8
238 K | 124.8
243 K | 127.3
248 K | 130.8
253 K | 132.6
258 K | 134.6
263 K | 137.6
268 K | 138.8
273 K | 141.9
278 K | 144.6
283 K | 146.5
288 K | 148.5
293 K | 150.9
298 K | 152.4
303 K | 154.1
308 K | 158
313 K | 160.2
318 K | 162.7
323 K | 164.5

CCCCCC(N)=O [hexanamide]
Conditions | Molar enthalpy of transition or fusion, [3] | Normal melting temperature, [1] | Triple point temperature, [1]
Crystal 1 | 3.99 kcal/mol and 4.21 kcal/mol | 100 °C and 100 °C | –
Crystal 2 | 1.89 kcal/mol | – | 305.1 K and 306 K

[2], Crystal 2
Conditions | molar heat capacity at constant pressure [J/K/mol]
183 K | 119.1
188 K | 121.1
193 K | 126.6
198 K | 128.6
203 K | 132.5
208 K | 135.8
213 K | 138.8
218 K | 142.1
223 K | 146.7
228 K | 150.8
233 K | 155.3
238 K | 160.1
243 K | 165.6
248 K | 169.6
253 K | 173.1

CCCCC(N)=O [pentanamide]
Conditions | Molar enthalpy of transition or fusion, Crystal 1 | Molar enthalpy of transition or fusion, Crystal 2 | Molar enthalpy of transition or fusion, Crystal 3 [kcal/mol] | Normal melting temperature, Crystal 1 | Triple point temperature, Crystal 2 | Triple point temperature, Crystal 3 [K]
[1] | – | – | – | 104.1 °C and 103.6 °C | 365 K and 365.4 K | 211.8
[3] | 4.28 kcal/mol and 4.61 kcal/mol | 0.287 kcal/mol and 0.253 kcal/mol | 0.454 | – | – | –

[2]
Conditions | molar heat capacity at constant pressure [J/K/mol]
183 K, Crystal 3 | 111.5
188 K, Crystal 3 | 116.1
193 K, Crystal 3 | 118.5
198 K, Crystal 3 | 122.5
203 K, Crystal 3 | 128.9
208 K, Crystal 3 | 133.1
213 K, Crystal 2 | 139.1
218 K, Crystal 2 | 145.1
223 K, Crystal 2 | 154
228 K, Crystal 2 | 162.5
233 K, Crystal 2 | 175
238 K, Crystal 2 | 183.4
243 K, Crystal 2 | 195.4
248 K, Crystal 2 | 200.8
253 K, Crystal 2 | 199.8
258 K, Crystal 2 | 196.2
263 K, Crystal 2 | 191.6
268 K, Crystal 2 | 185.8
273 K, Crystal 2 | 189.4
278 K, Crystal 2 | 187.1
283 K, Crystal 2 | 188.4
288 K, Crystal 2 | 188.4
293 K, Crystal 2 | 190
298 K, Crystal 2 | 190.3
303 K, Crystal 2 | 192.6
308 K, Crystal 2 | 196.4
313 K, Crystal 2 | 198.4
318 K, Crystal 2 | 202.5
323 K, Crystal 2 | 204.5

CCCCCCCC(N)=O [octanamide]
Conditions | Molar enthalpy of transition or fusion, Crystal 1 | Molar enthalpy of transition or fusion, Crystal 2 | Molar enthalpy of transition or fusion, Crystal 3 [kcal/mol] | Normal melting temperature, Crystal 1 | Triple point temperature, Crystal 2 | Triple point temperature, Crystal 3 [K]
[1] | – | – | – | 104 °C and 104.6 °C | 304.5 K and 304.5 K | 194.4
[3] | 6.6 kcal/mol and 6.5 kcal/mol | 0.232 kcal/mol and 0.237 kcal/mol | 0.457 | – | – | –

[2]
Conditions | molar heat capacity at constant pressure [J/K/mol]
183 K, Crystal 3 | 164.7
188 K, Crystal 3 | 169
193 K, Crystal 3 | 174.2
198 K, Crystal 2 | 180.6
203 K, Crystal 2 | 189.7
208 K, Crystal 2 | 197.1
213 K, Crystal 2 | 204.6
218 K, Crystal 2 | 213.2
223 K, Crystal 2 | 224.4
228 K, Crystal 2 | 228.2
233 K, Crystal 2 | 232.8
238 K, Crystal 2 | 234.3
243 K, Crystal 2 | 235.1
248 K, Crystal 2 | 236.3
253 K, Crystal 2 | 233.9
258 K, Crystal 2 | 236.1
263 K, Crystal 2 | 238.3
268 K, Crystal 2 | 235.4
273 K, Crystal 2 | 241.2
278 K, Crystal 2 | 242.7
283 K, Crystal 2 | 243.9
288 K, Crystal 2 | 244.9
293 K, Crystal 2 | 246.5
298 K, Crystal 2 | 245.1
303 K, Crystal 2 | 246.7
308 K, Crystal 1 | 249.3
313 K, Crystal 1 | 251.8

CCCCCCCCCC(N)=O [decanamide]
Conditions | Molar enthalpy of transition or fusion, Crystal 1 | Molar enthalpy of transition or fusion, Crystal 2 | Molar enthalpy of transition or fusion, Crystal 3 [kcal/mol] | Normal melting temperature, Crystal 1 | Triple point temperature, Crystal 2 | Triple point temperature, Crystal 3
[1] | – | – | – | 97.5 °C and 97.8 °C | 366.3 K and 366.9 K | 218.7 K and 218.7 K
[3] | 3.61 kcal/mol and 4.16 kcal/mol | 4.49 kcal/mol and 5.04 kcal/mol | 0.251 | – | – | –

[2], Crystal 2
Conditions | molar heat capacity at constant pressure [J/K/mol]
263 K | 236.4
268 K | 238.5
273 K | 247.6
278 K | 251.1
283 K | 260.7
288 K | 266.4
293 K | 270.2
298 K | 272.4
303 K | 278.5
308 K | 287
313 K | 291.6
318 K | 297.9
323 K | 304.4
